Data: patent publication US10745382B2 (BRISTOL-MYERS SQUIBB COMPANY, priority 2015, dated 2020)
Where two headings read alike, the source gives them in different places.

Target: T1, PD-1/PD-L1 (Homo sapiens, UniProt Q9NZQ7)
T1 construct: made in house; host or cells: HEK293T
Assay: PD-1/PD-L1 Homogenous Time-Resolved Fluorescence (HTRF) binding assay
Settings: PD-L1-His 10 nM, PD-1-Ig 20 nM, read-out: Range or IC50
Summary of the method: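 Binding was measured by HTRF in dPBS with 0.1% BSA and 0.05% Tween-20. Detection used europium cryptate anti-Ig (1 nM final) and APC anti-His (20 nM final) added over the binding reaction.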

T1 sequence (Q9NZQ7 with tags, fused parts or gaps): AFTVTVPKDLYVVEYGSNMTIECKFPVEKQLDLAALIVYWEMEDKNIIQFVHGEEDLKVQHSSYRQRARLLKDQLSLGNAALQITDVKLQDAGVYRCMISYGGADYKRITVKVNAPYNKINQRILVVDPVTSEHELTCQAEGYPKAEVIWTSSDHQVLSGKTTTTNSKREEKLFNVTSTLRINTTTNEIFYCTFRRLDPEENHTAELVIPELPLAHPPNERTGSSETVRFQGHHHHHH

SMILES: CN(CCCOc1cccc(-c2cccc(COc3cc(OCc4cncc(C#N)c4)c(CN[C@](C)(CO)C(=O)O)cc3Cl)c2Cl)c1Cl)C[C@H](O)CO [Example 2064, (R)-2-((5-chloro-2-((5-cyanopyridin-3-yl)methoxy)-4-((2,2′-dichloro-3′-(3-(((S)-2,3-dihydroxypropyl)(methyl)amino)propoxy)-[1,1′-biphenyl]-3-yl)methoxy)benzyl)amino)-3-hydroxy-2-methylpropanoic Acid]
- IC50 (value given as range class): 0.21 to 10 nM

SMILES: C[C@](CO)(NCc1cc(Cl)c(OCc2cccc(-c3cccc(OCCCN4CCC(O)(CO)CC4)c3Cl)c2Cl)cc1OCc1cncc(C#N)c1)C(=O)O [Example 2065, (R)-2-((5-chloro-2-((5-cyanopyridin-3-yl)methoxy)-4-((2,2′-dichloro-3′-(3-(4-hydroxy-4-(hydroxymethyl)piperidin-1-yl)propoxy)-[1,1′-biphenyl]-3-yl)methoxy)benzyl)amino)-3-hydroxy-2-methylpropanoic Acid]
- IC50 (value given as range class): 0.21 to 10 nM

SMILES: CC(CO)(CO)NCc1cc(Cl)c(OCc2cccc(-c3cccc(OCCCN4CC[C@@H](O)C4)c3Cl)c2Cl)cc1OCc1cccc(Cl)c1 [Example 2066, (R)-2-((5-chloro-2-((3-chlorobenzyl)oxy)-4-((2,2′-dichloro-3′-(3-(3-hydroxypyrrolidin-1-yl)propoxy)-[1,1′-biphenyl]-3-yl)methoxy)benzyl)amino)-2-methylpropane-1,3-diol]
- IC50 (value given as range class): 0.21 to 10 nM

SMILES: Cc1c(COc2cc(OCc3cncc(C#N)c3)c(CNC(C)(C)CO)cc2Cl)cccc1-c1cccc(OCCCN2CC[C@@H](O)C2)c1Cl [Example 2067, (R)-5-((4-chloro-5-((2′-chloro-3′-(3-(3-hydroxypyrrolidin-1-yl)propoxy)-2-methyl-[1,1′-biphenyl]-3-yl)methoxy)-2-(((1-hydroxy-2-methylpropan-2-yl)amino)methyl)phenoxy)methyl)nicotinonitrile]
- IC50 (value given as range class): 0.21 to 10 nM

SMILES: Cc1c(COc2cc(OCc3cncc(C#N)c3)c(CN(C)CC(C)(C)O)cc2Cl)cccc1-c1cccc(OCCCN2CC[C@@H](O)C2)c1Cl [Example 2068, (R)-5-((4-chloro-5-((2′-chloro-3′-(3-(3-hydroxypyrrolidin-1-yl)propoxy)-2-methyl-[1,1′-biphenyl]-3-yl)methoxy)-2-(((2-hydroxy-2-methylpropyl)(methyl)amino)methyl)phenoxy)methyl)nicotinonitrile]
- IC50 (value given as range class): 0.21 to 10 nM

SMILES: CC(=O)N[C@H]1CCN(CCCOc2cccc(-c3cccc(COc4cc(OCc5cncc(C#N)c5)c(CNC(CO)CO)cc4Cl)c3C)c2Cl)C1 [Example 2069, (S)—N-(1-(3-((2-chloro-3′-((2-chloro-5-((5-cyanopyridin-3-yl)methoxy)-4-(((1,3-dihydroxypropan-2-yl)amino)methyl)phenoxy)methyl)-2′-methyl-[1,1′-biphenyl]-3-yl)oxy)propyl)pyrrolidin-3-yl)acetamide]
- IC50 (value given as range class): 0.21 to 10 nM

SMILES: CC(=O)N[C@H]1CCN(CCCOc2cccc(-c3cccc(COc4cc(OCc5cncc(C#N)c5)c(CN[C@](C)(CO)C(=O)O)cc4Cl)c3Cl)c2Cl)C1 [Example 2070, (R)-2-((4-((3′-(3-((S)-3-acetamidopyrrolidin-1-yl)propoxy)-2,2′-dichloro-[1,1′-biphenyl]-3-yl)methoxy)-5-chloro-2-((5-cyanopyridin-3-yl)methoxy)benzyl)amino)-3-hydroxy-2-methylpropanoic Acid]
- IC50 (value given as range class): 0.21 to 10 nM

SMILES: CC(=O)N[C@H]1CCN(CCCOc2cccc(-c3cccc(COc4cc(OCc5cncc(C#N)c5)c(CN[C@](C)(CO)C(=O)O)cc4Cl)c3C)c2Cl)C1 [Example 2071, (R)-2-((4-((3′-(3-((S)-3-acetamidopyrrolidin-1-yl)propoxy)-2′-chloro-2-methyl-[1,1′-biphenyl]-3-yl)methoxy)-5-chloro-2-((5-cyanopyridin-3-yl)methoxy)benzyl)amino)-3-hydroxy-2-methylpropanoic Acid]
- IC50 (value given as range class): 0.21 to 10 nM

SMILES: CCN(Cc1cc(Cl)c(OCc2cccc(-c3cccc(OCCCN4CC[C@@H](O)C4)c3Cl)c2C)cc1OCc1cncc(C#N)c1)[C@](C)(CO)C(=O)O [Example 2072, (R)-2-((5-chloro-4-((2′-chloro-3′-(3-((R)-3-hydroxypyrrolidin-1-yl)propoxy)-2-methyl-[1,1′-biphenyl]-3-yl)methoxy)-2-((5-cyanopyridin-3-yl)methoxy)benzyl)(ethyl)amino)-3-hydroxy-2-methylpropanoic Acid]
- IC50 (value given as range class): 0.21 to 10 nM

SMILES: CC(=O)NC1CCN(CCCOc2cccc(-c3cccc(COc4cc(OCc5cncc(C#N)c5)c(CN(CCC(F)(F)F)C(CO)CO)cc4Cl)c3C)c2Cl)CC1 [Example 2073, N-(1-(3-((2-chloro-3′-((2-chloro-5-((5-cyanopyridin-3-yl)methoxy)-4-(((1,3-dihydroxypropan-2-yl)(3,3,3-trifluoropropyl)amino)methyl)phenoxy)methyl)-2′-methyl-[1,1′-biphenyl]-3-yl)oxy)propyl)piperidin-4-yl)acetamide]
- IC50 (value given as range class): 0.21 to 10 nM

SMILES: Cc1c(COc2cc(OCc3cncc(C#N)c3)c(CN(CCC(F)(F)F)C(CO)CO)cc2Cl)cccc1-c1cccc(OCCCN2CCC(O)(CO)CC2)c1Cl [Example 2074, 5-((4-chloro-5-((2′-chloro-3′-(3-(4-hydroxy-4-(hydroxymethyl)piperidin-1-yl)propoxy)-2-methyl-[1,1′-biphenyl]-3-yl)methoxy)-2-(((1,3-dihydroxypropan-2-yl)(3,3,3-trifluoropropyl)amino)methyl)phenoxy)methyl)nicotinonitrile]
- IC50 (value given as range class): 0.21 to 10 nM

SMILES: CCN(CCCOc1cccc(-c2cccc(COc3cc(OCc4cncc(C#N)c4)c(CN(CC)C[C@H](O)CO)cc3Cl)c2C)c1Cl)C[C@H](O)CO [Example 2075, 5-((4-chloro-5-((2′-chloro-3′-(3-(((S)-2,3-dihydroxypropyl)(ethyl)amino)propoxy)-2-methyl-[1,1′-biphenyl]-3-yl)methoxy)-2-((((S)-2,3-dihydroxypropyl)(ethyl)amino)methyl)phenoxy)methyl)nicotinonitrile]
- IC50 (numeric IC50): 5 nM

SMILES: Cc1c(COc2cc(OCc3cncc(C#N)c3)c(CN(C)C(C)(CO)CO)cc2Cl)cccc1-c1cccc(OCCCN2CC[C@@H](O)C2)c1Cl [Example 2076, (R)-5-((4-chloro-5-((2′-chloro-3′-(3-(3-hydroxypyrrolidin-1-yl)propoxy)-2-methyl-[1,1′-biphenyl]-3-yl)methoxy)-2-(((1,3-dihydroxy-2-methylpropan-2-yl)(methyl)amino)methyl)phenoxy)methyl)nicotinonitrile]
- IC50 (value given as range class): 0.21 to 10 nM

SMILES: Cc1c(COc2cc(OCc3cncc(C#N)c3)c(CNC3(CO)CC3)cc2Cl)cccc1-c1cccc(OCCCN2CC[C@@H](O)C2)c1Cl [Example 2077, (R)-5-((4-chloro-5-((2′-chloro-3′-(3-(3-hydroxypyrrolidin-1-yl)propoxy)-2-methyl-[1,1′-biphenyl]-3-yl)methoxy)-2-(((1-(hydroxymethyl)cyclopropyl)amino)methyl)phenoxy)methyl)nicotinonitrile]
- IC50 (value given as range class): 0.21 to 10 nM

SMILES: C[C@](CO)(NCc1cc(Cl)c(OCc2cccc(-c3cccc(OCCCN4C[C@@H](O)[C@H](O)C4)c3Cl)c2Cl)cc1OCc1cncc(C#N)c1)C(=O)O [Example 2078, (R)-2-((5-chloro-2-((5-cyanopyridin-3-yl)methoxy)-4-((2,2′-dichloro-3′-(3-((3R,4R)-3,4-dihydroxypyrrolidin-1-yl)propoxy)-[1,1′-biphenyl]-3-yl)methoxy)benzyl)amino)-3-hydroxy-2-methylpropanoic Acid]
- IC50 (value given as range class): 0.21 to 10 nM

SMILES: Cc1c(COc2cc(OCc3cncc(C#N)c3)c(CNC(C)(CO)CO)cc2Cl)cccc1-c1cccc(OCC(CO)CO)c1Cl [Example 2079, 5-((4-chloro-5-((2′-chloro-3′-(3-hydroxy-2-(hydroxymethyl)propoxy)-2-methyl-[1,1′-biphenyl]-3-yl)methoxy)-2-(((1,3-dihydroxy-2-methylpropan-2-yl)amino)methyl)phenoxy)methyl)nicotinonitrile]
- IC50 (value given as range class): 0.21 to 10 nM

SMILES: Cc1c(COc2cc(OCc3cncc(C#N)c3)c(CNC(C)(CO)CO)cc2Cl)cccc1-c1cccc(OCCC(C)(C)O)c1Cl [Example 2080, 5-((4-chloro-5-((2′-chloro-3′-(3-hydroxy-3-methylbutoxy)-2-methyl-[1,1′-biphenyl]-3-yl)methoxy)-2-(((1,3-dihydroxy-2-methylpropan-2-yl)amino)methyl)phenoxy)methyl)nicotinonitrile]
- IC50 (value given as range class): 0.21 to 10 nM

SMILES: Cc1c(COc2cc(OCc3cncc(C#N)c3)c(CNC(C)(CO)CO)cc2Cl)cccc1-c1cccc(OCCc2ccccn2)c1Cl [Example 2081, 5-((4-chloro-5-((2′-chloro-2-methyl-3′-(2-(pyridin-2-yl)ethoxy)-[1,1′-biphenyl]-3-yl)methoxy)-2-(((1,3-dihydroxy-2-methylpropan-2-yl)amino)methyl)phenoxy)methyl)nicotinonitrile]
- IC50 (value given as range class): 0.21 to 10 nM

SMILES: Cc1c(COc2cc(OCc3cncc(C#N)c3)c(CNC(C)(CO)CO)cc2Cl)cccc1-c1cccc(OCC(O)CO)c1Cl (centres unmarked) [Example 2082, 5-((4-chloro-5-((2′-chloro-3′-(2,3-dihydroxypropoxy)-2-methyl-[1,1′-biphenyl]-3-yl)methoxy)-2-(((1,3-dihydroxy-2-methylpropan-2-yl)amino)methyl)phenoxy)methyl)nicotinonitrile]
- IC50 (value given as range class): 0.21 to 10 nM

SMILES: Cc1c(COc2cc(OCc3cncc(C#N)c3)c(CN3CCCC[C@H]3C(=O)O)cc2Cl)cccc1-c1cccc(OCC(O)CO)c1Cl (stereo partly drawn) [Example 2083, (2S)-1-(5-chloro-4-((2′-chloro-3′-(2,3-dihydroxypropoxy)-2-methyl-[1,1′-biphenyl]-3-yl)methoxy)-2-((5-cyanopyridin-3-yl)methoxy)benzyl)piperidine-2-carboxylic Acid]
- IC50 (numeric IC50): 4 nM
